Source: patent US7368254B2, “Lipid-based systems for targeting diagnostic agents” (Liplasome Pharma A/S, priority 2000, dated 2008)
Entries after “also recorded” stand apart in the source; their conditions may differ.

Assays:
[1] = molecular target: T1, Snake venom PLA2 (Agkistrodon piscivorus piscivorus) (Agkistrodon piscivorus piscivorus, UniProt P51972); test: PLA2-controlled release of calcein across non-hydrolysable D-O-SPC target membrane (carrier liposomes or micelles); type: biochemical; conditions: carrier liposomes 25 μM; 25 nM PLA2; 37° C.; FIG. 12a
T1 construct: Purified snake-venom phospholipase A2; from tissue
T1 sequence (P51972 1-123): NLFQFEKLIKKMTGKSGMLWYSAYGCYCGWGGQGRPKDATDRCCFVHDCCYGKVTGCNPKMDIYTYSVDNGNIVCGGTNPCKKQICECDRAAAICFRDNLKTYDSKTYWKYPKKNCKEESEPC
Experimental: Multilamellar model membrane target liposomes were made in the presence of fluorescent calcein in a self-quenching concentration of 20 mM by hydrating a film of 1,2-O-dioctadecyl-sn-glycero-3-phosphatidylcholines (D-O-SPC) in a HEPES buffer solution at pH=7.5 for one hour at 10° C. above the phase transition temperature (Tm=55° C.). […] The unilamellar liposomes were rapidly cooled to a temperature below the transition temperature, and the calcein-containing liposomes were separated from free calcein using a chromatographic column packed with Sephadex G-50. […] Calcein release from the target liposomes is determined by measuring the fluorescent intensity at 520 nm after excitation at 492 nm.
Unilamellar liposomes were made by extruding the multilamellar liposomes ten times through two stacked 100 nm polycarbonate filters.

[2] = i.v., 50 mg/kg
Experimental: Groups of mice (n=5/group; weight 18-22 g) were treated i.v. with buffer (PBS), ET-18-OCH3 (50 mg/kg), and liposomes composed of 1-O-DPPC with 5 mol % 1-O-DPPE-PEG2000 (68.7 and 137.5 mg/kg). 30 min after injection, 100 μl blood was collected into heparinised tubes directly from decapitated, CO2-anesthetised mice. The blood was centrifuged at 500×G for 10 min, and plasma was removed and stored at −20° C. until analysed.
25 μl plasma was mixed with 2,5 ml PBS or 2.5 ml 10% triton X-100.

[3] = system: human red blood cells (RBC); test: Hemolysis assay; conditions: 37° C., 20 hours, FIG. 6
Experimental: Briefly, each sample was serially diluted with phosphate buffered saline (PBS), and 0.5 ml of each dilute suspension was mixed with 0.5 ml washed human red blood cells (RBC) [4% in PBS (v/v)]. Sample and standard were placed in a 37° C. incubator and agitated for 20 hours. Tubes were centrifuged at low speed (2000×G) for 10 minutes and 200 μl of the supernatant was quantitated by absorbance at 550 nm. 100 percent hemolysis was defined as the maximum amount of hemolysis obtained from the detergent Triton X-100.
The lipids were hydrated in phosphate buffered saline (PBS). 1-O-octadecyl-2-O-methyl-sn-glycero-3-phosphocholine (ET-18-OCH3) in PBS was included in the assay as a reference.
Briefly, each sample was serially diluted with PBS, and 0.5 ml of each dilute suspension of 1-O-DPPC liposomes were mixed with 0.5 ml washed human red blood cells (RBC) [4% in PBS (v/v)]. For controls, 0.5 ml of the red blood cell suspension was mixed with either 0.5 ml buffer solution (negative hemolysis control) or 0.5 ml water (positive hemolysis control). Samples and standard were placed in a 37° C. incubator and agitated for 20 hours. Tubes were centrifuged at low speed (2000×G) for 10 minutes to form RBCs pellets. 200 μl of the supernatant was quantitated by absorbance at 550 nm using a Perkin-Elmer 320 scanning spectrophotometer. […]

extracellular PLA2 = test: Effect of cholesterol incorporated into liposomes on extracellular PLA2 activity (data not shown); type: biochemical
Text: Short-chain phospholipids, such as didecanoyl phosphatidylcholine (DCPC), activate extracellular PLA2.

[4] = Calcein release across target membrane on adding lyso-phospholipid and fatty acid, in the absence of PLA2; conditions: target membranes 25 μM; 39° C.; pH 7.5; FIG. 13
Experimental: Total release after 20 min of the fluorescent model drug and/or contrast agent calcein across the target membrane as a function of adding increasing amounts of lyso-palmitoyl phospholipid and palmitic acid, separately, and in a 1:1 mixture. The concentration of the target membranes is 25 μM in a HEPES buffer with pH=7.5 at a temperature of 39° C.
The experimental model system consists of bare liposomes, polymer-coated liposome carrier and a model target membrane. The carrier is a 100 nm unilamellar liposome made of dipalmitoyl phosphatidylcholine lipids (DPPC) with 2.5 mol % lipopolymer of the type dipalmitoyl phosphatidylethanolamine (DPPE)-PEG2000. The target membrane is another liposome made of 1,2-O-dioctadecyl-sn-glycero-phosphatidylcholine (D-O-SPC) which is a phospholipid where the acyl linkages of the stearoyl chains are ether bonds. In contrast to DPPC, D-O-SPC is inert towards PLA2-catalysed hydrolysis thereby mimicking the stability of an intact target cell membrane toward degradation by its own enzymes. […] The permeation of calcein across the D-O-SPC target membrane is subsequently monitored by the increase in fluorescence. […]

[5] = molecular target: T2, phospholipase A2 (A. piscivorus piscivorus) (Agkistrodon piscivorus piscivorus, UniProt P51972); conditions: 0.150 mM micelles, 150 nM PLA2, 45° C.
T2 sequence (P51972 1-123): T1 sequence (P51972 1-123)
Experimental: The hydrolysis of micelles composed DSPE-PEG750 was followed by analysis of the amount of stearic acid generated. The catalytic reaction was initiated by adding 8.9 μL of a 42 μM PLA2 (150 nM) stock solution to 2.5 ml a thermostated micelle suspension of DSPE-PEG750 (0.150 mM) equilibrated at 45° C. for 600 seconds prior to addition of PLA2. The characteristic burst behaviour of PLA2 towards the micelles is signalled by a sudden increase in the intrinsic fluorescence from PLA2 at 340 nm after excitation at 285 nm followed by a concomitant decrease in the 90° light scattering from the lipid suspension (Hønger et al., Biochemistry 35, 9003-9006). Samples for HPLC analysis of the amount of stearic acid generated were taken before adding PLA2 and 100 sec after the observed lag-time. […] HPLC analysis was made using a 5 μm diol column, a mobile phase composed of chloroform/methanol/water (730:230:30, v/v) and an evaporative light scattering detector (see example 2).

## CCCCCCCCCC(=O)OC[C@H](COP(=O)([O-])OCC[N+](C)(C)C)OC(=O)CCCCCCCCC [DCPC, didecanoyl phosphatidylcholine]
[1]
  rate of calcein release across target membrane versus bare DPPC carriers: very fast; also recorded: further augmentation of the rate of release

## CCCCCCCCCCCCCCCCCCOC[C@H](COP(=O)([O-])OCC[N+](C)(C)C)OC [ET-18-OCH3]
[2]
  outcome of treated mice (in words): died within the 30 minutes period
[3]
  hemolysis at low concentrations: significant degree of hemolysis

## CC(C)CCC[C@@H](C)[C@H]1CC[C@H]2[C@@H]3CC=C4C[C@@H](O)CC[C@]4(C)[C@H]3CC[C@]12C [cholesterol]
Extracellular PLA2; large amount (≈20 mol %) incorporated into liposomes
  effect on extracellular PLA2: deactivated
Extracellular PLA2; small amount (≈3 mol %)
  effect on extracellular PLA2: activates

## CCCCCCCCCCCCCCCC(=O)O [fatty acid, palmitic acid]
[4]
  rate of calcein release across target membrane in the absence of PLA2: increased rate of calcein release

## di-octadecanoyl-sn-glycero-3-phosphoethanolamine-N-[methoxy(polyethylene glycol)-750 [DSPE-PEG750]
[5]; 100 sec after lag-time
  percentage hydrolysis of DSPE-PEG750 to lyso-SPE-PEG750 and stearic acid: 100%
[5]
  observed lag time: 10 s
